The subject of series [1] is VCAM-1. Kind of series: Inhibition of cytokine-induced VCAM-1 expression in proliferating HUVEC (cell-surface ELISA). The format is cell-based. Conditions: Homo sapiens, coincubated with tumor necrosis factor-alpha and compound for 20 hr, average of two runs. The method, then:
Plate proliferating human umbilical vein endothelial cells (HUVEC) or human aortic smooth muscle cells (HASMC) from Clonetics (San Diego, CA) onto 96-well plates in 100 µL medium per well at 20,000 cells per cm^2. Maintain the cultures in growth medium (EGM or SMGM2, Clonetics, San Diego, CA) for two days prior to addition of cytokines or drugs. Add cytokines plus or minus compounds for 20 to 24 hours prior to analysis for adhesion molecule levels. Add tumor necrosis factor (Genzyme, Cambridge, MA) to cultures at 500-1000 units/mL to stimulate adhesion molecule expression. Add interleukin-4 (GIBCO-BRL, Gaithersburg, MD) to cultures at 100-200 pg/mL to stimulate VCAM-1 expression. […] Remove the culture medium, and wash the monolayers twice with Hanks buffered saline solution (HBSS) at room temperature. Add the primary antibody (anti-human VCAM-1 from Upstate Biotechnology, Inc., Lake Placid, NY or anti-human ICAM-1 from Immunotech, Inc., Westbrook, ME) to each well (1 µg/mL in HBSS plus 5% newborn calf serum, GIBCO-BRL, Gaithersburg, MD) and incubate at 37°C for 1 hr. Wash the wells twice with HBSS, then add 100 µL of a 1/1000 dilution of goat anti-mouse IgG conjugated to horse radish peroxidase (BioRad, Hercules, CA) in HBSS plus 5% newborn calf serum to each well and incubated for 1 hr at 37°C. […] Measure absorbance at 450 nm with a plate reader. […]
(An ELISA detects its analyte on a solid surface through an enzyme-linked reagent.)

In series [2] the test system is ICAM-1. Kind of series: Inhibition of cytokine-induced ICAM-1 expression in proliferating HUVEC (cell-surface ELISA). It counts as cell-based, human. Here is the method: Plate proliferating human umbilical vein endothelial cells (HUVEC) or human aortic smooth muscle cells (HASMC) from Clonetics (San Diego, CA) onto 96-well plates in 100 µL medium per well at 20,000 cells per cm^2. Maintain the cultures in growth medium (EGM or SMGM2, Clonetics, San Diego, CA) for two days prior to addition of cytokines or drugs. Add cytokines plus or minus compounds for 20 to 24 hours prior to analysis for adhesion molecule levels. Add tumor necrosis factor (Genzyme, Cambridge, MA) to cultures at 500-1000 units/mL to stimulate adhesion molecule expression. Add interleukin-4 (GIBCO-BRL, Gaithersburg, MD) to cultures at 100-200 pg/mL to stimulate VCAM-1 expression. […] Remove the culture medium, and wash the monolayers twice with Hanks buffered saline solution (HBSS) at room temperature. Add the primary antibody (anti-human VCAM-1 from Upstate Biotechnology, Inc., Lake Placid, NY or anti-human ICAM-1 from Immunotech, Inc., Westbrook, ME) to each well (1 µg/mL in HBSS plus 5% newborn calf serum, GIBCO-BRL, Gaithersburg, MD) and incubate at 37°C for 1 hr. Wash the wells twice with HBSS, then add 100 µL of a 1/1000 dilution of goat anti-mouse IgG conjugated to horse radish peroxidase (BioRad, Hercules, CA) in HBSS plus 5% newborn calf serum to each well and incubated for 1 hr at 37°C. Wash the wells three times with HBSS, then add 100 µL of TMB substrate (BioRad, Hercules, CA) to each well. Stop the reaction after blue color develops by addition of 50 µL of 1 N H2SO4. Measure absorbance at 450 nm with a plate reader.
The IC50 value is defined as the drug concentration that inhibits the cytokine-induced adhesion molecule expression by 50%. Maximal values for adhesion molecule expression in cytokine-induced cultures was subtracted from the basal level of adhesion molecule expression (minus cytokines) in the cultures to detoermine the level of induction. Each drug concentration was tested in quadruplicate wells. […]

Series [3] is described as follows: In vivo screening in rats: serum clinical chemistries. Details: species or system Male Sprague-Dawley rats. To be noted: percent of control, diet 0.3% for 4 days, N = 5 rats; for ALT: alanine aminotransferase in serum; for ALP: alkaline phosphatase in serum; for AST: aspartate aminotransferase in serum; for GLUC: glucose in serum; for CHOL: total cholesterol in serum; for TRIG: triglycerides in serum. The source says:
(§1) A typical experiment consists of 4-6 groups of rats (N = 5 per group) with 1 group being a control which receives no MDL compound and the other groups being treated with 0.3% MDL compound. Some of the compounds are either repeated at 0.3% or evaluated again at the lower dose of 0.1 %. House Male Sprague-Dawley rats, 50-100 g, (Harlan Laboratories, Indianapolis, IN) in groups of 5, feeding ad libitum water and Purina Rodent chow (#5002) with or without MDL compound as a dietary admixture for 4 days. Make dietary admixtures (0.3%) by mixing 1.2 grams of an MDL compound with 400 grams of Purina rodent chow (#5002). Mix the MDL compound with approximately 50 grams of food using a mortar and pestle. This is added to the remainder of the food and mixed for 3 hours on a rotary mixer. In the morning of day 5, anesthetize non-fasted rats with carbon dioxide, and collect blood by cardiac puncture. Sacrifice rats by cervical dislocation. Record body weights and liver weights in grams. Record food consumption as grams • day^-1 • rat^-1. Deaths are recorded as mortality. Use aliquots of fresh serum for clinical chemistries, thiobarbituric acid reactive substances (TBARS) and conjugated diene measurements. Freeze aliquots of serum (∼ 0.5mL) and whole livers at -20°C for compound and metabolite concentration determination at a later time.
Allow blood to clot at room temperature for 30 minutes. Obtain serum after centrifugation for 10 min at 4°C at 3000 rpm in a Beckman J-6M/E centrifuge with a JS-4.2 rotor. Analyze fresh serum by a COBAS MIRA S autoanalyzer (Roche Diagnostics) using Roche diagnostic reagents for the following clinical chemistry measurements: alkaline phosphatase (ALP, kit # 44553), alanine transaminase (ALT, kit # 42375), aspartate aminotransferase (AST, kit # 42381), total cholesterol (CHOL, kit # 44334), triglyceride (TG, kit # 44120), and glucose (GLU, kit # 44558). Calculate ALP, ALT, and AST as units/L. Calculate cholesterol, triglycerides, and glucose as mg/dL.

For series [4], the system named is serum lipids. Kind of series: In vivo screening in rats: TBARS assay on serum (CuSO4-initiated oxidation). Also on record: species or system Male Sprague-Dawley rats. To be noted: thiobarbituric acid reactive substances (nmoles MDA) in serum, percent of control; diet 0.3% for 4 days, N = 5 rats.
Text: as §1, with “Sacrifice rats by cervical dislocation. Record body weights and liver weights in grams. Record food consumption as grams • day^-1 • rat^-1.” left out, “Use aliquots of fresh serum for clinical chemistries, thiobarbituric acid reactive substances (TBARS) and conjugated diene measurements. Freeze aliquots of serum (∼ 0.5mL) and whole livers at -20°C for compound and metabolite concentration determination at a later time.” left out
In this assay the oxidation of serum lipids is initiated with CuSO4, resulting in the formation of aldehydes, such as malondialdehyde (MDA). Upon incubation with thiobarbituric acid, the absorbance of the aldehydes can be detected at 530-540 nm. […] Measure absorbances at 540 nm using a Biotek model EL311 microplate reader. The nmoles of MDA produced are calculated from a standard curve of 0 to 10 nmoles of MDA prepared from malonaldehyde bis(dimethylacetal). […]

For series [5], the system named is serum lipids. Kind of series: In vivo screening in rats: conjugated diene lag phase of pooled serum. Also on record: species or system Male Sprague-Dawley rats. Conditions: mean of 2 determinations of pooled serum (N = 5), not normalized, Control = 61 min., diet 0.3% for 4 days.
Text: as §1, with “Use aliquots of fresh serum for clinical chemistries, thiobarbituric acid reactive substances (TBARS) and conjugated diene measurements. Freeze aliquots of serum (∼ 0.5mL) and whole livers at -20°C for compound and metabolite concentration determination at a later time.” left out
Conjugated diene lag phase is another indicator of the oxidation of lipids. […] Measure the absorbances of all cuvettes and set the instrument baseline to zero using the lowest absorbing sample. […] Record the absorbance of each cuvette at 2 min intervals for a period of 840 min. […]

The nature of series [6]: In vivo screening in rats: animal parameters (food, body weight, liver weight, mortality). Conditions: diet 0.3% for 4 days, N = 5 rats; for mortality: deaths per group; for food: grams eaten per day per rat; for food / lw/bw / body wt.: percent of control; for lw/bw: liver weight/body weight; for body wt.: weight in grams. Also on record: species or system Male Sprague-Dawley rats.
Text: as §1

The conditions of series [7]: male, Sprague-Dawley, rat, in vivo.
Text: as §1
Determine serum and liver concentrations of parent compound and the metabolites, bisphenol and diphenoquinone, by reverse phase HPLC using a Waters 990 Powerline system. Homegenize livers (1 gram samples) with 5.0mL PBS, pH 7.4, using a Polytron tissue homogenizer at setting 5 for 20-30 seconds. Extract serum or liver homogenates as follows: add 100µL of either serum or homogenate to 2.0mL diethyl ether: ethanol (3:1) while vortexing the tube. Cap the sample tubes and centrifuge for 10 min at 5°C at 3500 rpm in a Beckman GPKR centrifuge with a GH 3.7 rotor. Transfer the supematants to clean tubes and dry under N2. Reconstitute samples with 200µL of acetonitrile : hexane: 0.1 M ammonium acetate (90: 6.5 : 3.5, by vol.). Then, inject 100µL onto a Waters Deltapak C18-300 Å column, and elute with an 83% acetonitrile : 17% water mobile phase at a flow rate of 1.5mL/min. Record absorbances at the wavelengths of 240, 254, and 420nm. Calculate compound concentrations from known quantities of authentic parent compounds after correction for recovery. […]. Calculate concentrations as µg/mL of serum and µg/g of liver.

Structures are written as SMILES. Where two headings read alike, the source gives them in different places.

One may read the IC50 as the concentration that gives 50% inhibition. For orientation: mortality means the share of the test organisms that died. High values mean a strong lethal effect, low ones a weak lethal effect.

In the case of `CC(C)(C)c1cc(OC[Si](C)(C)c2ccco2)cc(C(C)(C)C)c1O` [MDL 106,939, Phenol, 2,6-bis(1,1-dimethylethyl)-4-[(2-furanyldimethylsilyl)methoxy]-], the IC50 in series [1] came out at 13 µM. For the same compound, the IC50 in series [2] (Homo sapiens, coincubated with tumor necrosis factor-alpha and compound for 20 hr, average of two runs, except MDL 107,695 where both values are shown, read-out: ICAM-1 IC50) is 33 µM. In series [3], this compound gave an ALT of 92%, an ALP of 123%, an AST of 106% and a GLUC of 83%. In series [3], this compound came in with a CHOL of 120% and a TRIG of 108%. Further, the TBARS in series [4] was found to be 64%. In addition, the “CONJ. DIENE” value in series [5] is 391 min. In addition, in series [6], the mortality was 0%, the food was 88%, the lw/bw stood at 130% and the body wt. is on record as 92%. Further, in series [7], the “Liver Parent” value is reported as 97.7 µg/g liver and the “Serum Parent” value is 3.3 µg/mL of serum.
As for `CC(C)(C)c1cc(OC[Si](C)(C)c2cccs2)cc(C(C)(C)C)c1O` [MDL 107,965, Phenol, 2,6-bis(1,1-dimethylethyl)-4-[(dimethyl-2-thienylsilyl)methoxy]-], the IC50 in series [2] (Homo sapiens, 20 h, read-out: ICAM-1 IC50, HUVEC, coincubated with tumor necrosis factor-alpha and compound for 20 hr, average of two runs, except MDL 107,695 where both values are shown) came out at 72 µM. Moreover, in series [2] (read-out: ICAM-1 IC50, coincubated with tumor necrosis factor-alpha and compound for 20 hr, average of two runs, except MDL 107,695 where both values are shown), the IC50 is above 100 µM. In addition, in series [3], the ALT was determined as 96%, the ALP is given as 137%, the AST is 89% and the GLUC is on record as 86%. In series [3], this compound had a CHOL of 121% and a TRIG of 90%. Besides, the TBARS in series [4] is on record as 57%. Moreover, in series [5], the “CONJ. DIENE” value came out at 273 min. In series [6], this compound came in with a mortality of 0%, a food of 84%, a lw/bw of 118% and a body wt. of 84%. In series [7], the “Liver Parent” value is reported as 82 µg/g liver and the “Serum Parent” value is listed as 12.6 µg/mL of serum.

For the origin of these results see EP0998477B1, “Alkyl-4-silylheterocyclic phenols and thiophenols as antioxidant agents” (priority 1997, dated 1998).
